Measured values: patent US9241923B2, “Methods for promoting neuronal development and/or health” (Mead Johnson Nutrition Company, priority 2013, dated 2016)

System: human adipose derived stem cells (hADSCs)
Experiment: neurogenesis / neuronal differentiation of hADSCs judged by neuronal morphology under phase contrast microscopy
Format: cell-based
Experimental: hADSCs were purchased from Invitrogen, also known as Life Technologies, of Carlsbad, Calif., U.S.A., and were cultured as near confluent monolayers in 100 mm culture plates within a maintenance media consisting of Complete MesenPro RS medium with growth supplement and L-glutamine obtained from Invitrogen®. The process of culturing, passage, and seeding the hADSCs is described below.
The subculture of hADSCs was performed when cell culture reached confluence. To passage hADSCs, the following procedure is used: i) aspirate the Complete MesenPRO RS medium from the cells; ii) rinse the surface area of the cell layer with Dulbecco's phosphate buffered saline (DBPS) buffer by adding the DPBS to the side of the vessel opposite the attached cell layer and rocking the vessel back and forth several times; iii) remove the DPBS by aspiration and discard; iv) detach the cells by adding a sufficient volume of pre-warmed trypsin-EDTA solution without phenol red to cover the cell layer; v) incubate at 37° C. for approximately 7 minutes; vi) observe the cells under a microscope to determine if additional incubation is needed; vii) add 3 mL of the maintenance media to the plate, mix the cell suspension, add the suspension to a 15 mL centrifuge tube and centrifuge at 210 g for 5 minutes; viii) determine the total number of cells and percent viability using a hemacytometer; ix) add Complete MesenPRO RS medium to each vessel so that the final culture volume is 0.2 mL-0.5 mL per cm^2; x) seed the cells by adding the appropriate volume of cells to each vessel and incubate at 37° C., 5% CO2 and 90% humidity; and xi) three or four days after seeding, completely remove the medium and replace with an equal volume of Complete MesenPRO RS medium.
Before seeding the passaged hADSCs on fresh culture plates, the surfaces of the culture ware are washed with sterile DPBS solution three times, followed by multiple rinses with sterile water. The first layer of coating is poly-L-ornithine. The coating is prepared by adding about 15 to about 20 µg/mL of poly-L-ornithine and incubating at 37° C. for one hour. The plate is washed three times with DPBS, 15 minutes per wash. The second layer of coating is bovine plasma fibronectin. The fibronectin is diluted in DPBS from stock to 1:1000 and 500 μL is added to each well. The plate is left at room temperature for one hour. One final wash with 500 μL per well of DPBS is performed and the plate is used immediately.
The cells were then subjected to removal and reseeded at a density of 2×10^4 cells/ml (1×10^4 cells/well) onto 24-well culture plates that contained a poly-L-ornithine and bovine plasma fibronectin coating.
Three days after seeding and priming; the culture medium was changed into neuronal differentiation medium. […]

| Compound | neuronal morphology of hADSCs (DHA at 20 μM (positive control), vs negative control, FIG. 2B) | neurite outgrowth compared with DHA (ALA 5 μg/ml vs DHA 20 μM, FIG. 2C vs FIG. 2B) | neurogenesis (neuronal morphology displayed by the hADSCs) (ALA at 5 μg/ml, phase contrast microscopy at 3 hours and 24 hours, vs negative control (no treatment), FIG. 2C) | cell death (cellular toxicity) as compared to DHA (wells treated with ALA 5 μg/ml vs DHA 20 μM, hADSCs) |
| --- | --- | --- | --- | --- |
| CC/C=C\C/C=C\C/C=C\C/C=C\C/C=C\C/C=C\CCC(=O)O [DHA, docosahexanoic acid, reference compound] | enhanced neuronal morphology of hADSCs |  |  |  |
| O=C(O)CCCCC1CCSS1 (stereo not drawn) [ALA, Alpha-lipoic acid] |  | robust ability to promote neurogenesis in terms of neurite outgrowth | strong effect to enhance neurogenesis | less cell death overall |
